Measured values reported in the CheMixHub viscosity set.

Assay: xn = mol fraction of the nth substance listed

Nc1ccccc1 + CCCCCO
viscosity [mPa·s]
Details	293.15 K	303.15 K	313.15 K	323.15 K
100 kPa, x1 = 0.0802	3.66	2.77	2.11	1.66
100 kPa, x1 = 0.1304	–	2.664	2.018	–
100 kPa, x1 = 0.1536	3.42	2.6	2.01	1.57
100 kPa, x1 = 0.2363	3.26	2.48	1.93	1.52
100 kPa, x1 = 0.2524	–	2.309	1.697	–
100 kPa, x1 = 0.3418	3.15	2.4	1.86	1.48
100 kPa, x1 = 0.3885	–	1.947	1.361	–
100 kPa, x1 = 0.4371	3.11	2.34	1.84	1.47
100 kPa, x1 = 0.4944	–	1.724	1.147	–
100 kPa, x1 = 0.5521	3.12	2.32	1.84	1.47
100 kPa, x1 = 0.5745	–	1.627	1.051	–
100 kPa, x1 = 0.6518	3.21	2.37	1.88	1.5
100 kPa, x1 = 0.6878	–	1.619	1.031	–
100 kPa, x1 = 0.7411	3.35	2.47	1.96	1.56
100 kPa, x1 = 0.8105	–	1.865	1.245	–
100 kPa, x1 = 0.8487	3.63	2.66	2.12	1.67
100 kPa, x1 = 0.924	–	2.42	1.75	–
100 kPa, x1 = 0.9425	4.04	2.95	2.32	1.83
101.33 kPa, x2 = 0.1207	3.714	–	–	–
101.33 kPa, x2 = 0.2883	3.273	–	–	–
101.33 kPa, x2 = 0.3221	3.227	–	–	–
101.33 kPa, x2 = 0.3789	3.161	–	–	–
101.33 kPa, x2 = 0.4074	3.138	–	–	–
101.33 kPa, x2 = 0.5661	3.087	–	–	–
101.33 kPa, x2 = 0.7695	3.258	–	–	–
101.33 kPa, x2 = 0.8055	3.326	–	–	–
101.33 kPa, x2 = 0.8557	3.444	–	–	–
101.33 kPa, x2 = 0.9099	3.605	–	–	–
101.33 kPa, x2 = 0.9484	3.756	–	–	–
101.33 kPa, x2 = 0.9525	3.775	–	–	–

Oc1ccc2ccccc2c1 + CCCCCOC(C)=O
Details	viscosity [mPa·s]
298.15 K, 101 kPa, x2 = 0.5	1.598

CC(C)C=O + CCCCO
100 kPa
Details	viscosity [mPa·s]
294.4 K, x1 = 0.76	8.02
296.4 K, x1 = 0.6	13.17
296.9 K, x1 = 0.9	5.36
314.5 K, x1 = 0.6	8.56

CCC(O)CO (configuration not stated) + CCCCO
viscosity [mPa·s], 100 kPa
Details	x2 = 0.101	x2 = 0.2	x2 = 0.302	x2 = 0.4	x2 = 0.5	x2 = 0.501	x2 = 0.601	x2 = 0.701	x2 = 0.801	x2 = 0.901
298.15 K	34.46	23.34	17.03	12.19	8.818	–	6.546	5.014	3.978	3.113
303.15 K	25.85	17.61	13.14	10.08	7.482	–	5.629	4.383	3.441	2.757
308.15 K	19.83	13.86	10.42	8.155	6.2	–	4.703	3.738	2.982	2.41
313.15 K	15.54	10.92	8.434	6.703	5.179	–	3.992	3.217	2.596	2.122
318.15 K	12.35	8.882	6.942	5.58	–	4.373	3.419	2.793	2.271	1.874
323.15 K	9.916	7.286	5.744	4.694	–	3.724	2.942	2.417	1.989	1.66

Oc1ccc2ccccc2c1 + CCCCO
viscosity [mPa·s], 101 kPa
Details	x1 = 0.04	x1 = 0.08	x1 = 0.12	x1 = 0.16	x1 = 0.2
293.15 K	3.344	3.751	4.242	4.879	5.596
303.15 K	2.529	2.808	3.17	3.582	4.024
313.15 K	1.974	2.175	2.421	2.751	3.144
323.15 K	1.592	1.712	1.882	2.11	2.374
